Measurements from patent publication US20100298141A1, “SUBSTITUTED PYRIDINE N-OXIDE HERBICIDES” (E. I. DU PONT DE NEMOURS AND COMPANY, priority 2007, published 2010).

Columns and labels:
[1] = tested on: guineagrass; experiment: Test F preemergence test; format: in vivo, Panicum maximum; details: scale 0 to 100
In short: (§1)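 Compounds in a non-phytotoxic solvent formulation with surfactant were applied before emergence after sowing, or, for sugarcane, also postemergence. Evaluation was visual, against controls, after 14 to 21 greenhouse days.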

[2] = tested on: Russian thistle; experiment: Test F preemergence test; format: in vivo, Salsola kali; details: scale 0 to 100
Excerpt: (§2) Seeds of plant species selected from bermudagrass (Cynodon dactylon), Surinam grass (Brachiaria decumbens), large crabgrass (Digitaria sanguinalis), green foxtail (Setaria viridis), goosegrass (Eleusine indica), johnsongrass (Sorghum halepense), kochia (Kochia scoparia), pitted morningglory (Ipomoea lacunosa), purple nutsedge (Cyperus rotundus), common ragweed (Ambrosia elation), mustard (Brassica nigra), guineagrass (Panicum maximum), […] (Paspalum dilatatum), barnyardgrass (Echinochloa crus-galli), southern sandbur (Cenchrus echinatus), common sowthistle (Sonchus oleraceous), prickly […] spinosa), Italian ryegrass (Lolium multiflorum), common purslane (Portulaca oleracea), broadleaf signalgrass (Brachiaria platyphylla), common groundsel (Senecio vulgaris), common chickweed (Stellaria media), Virginia dayflower (Commelina virginica), annual bluegrass (Poa annua), naked crabgrass (Digitaria nuda), […] cochinchinensis), quackgrass (Elytrigia repens), Canada horseweed (Conyza canadensis), field bindweed (Convolvulus arvensis), […] (Bidens bipinnata), common mallow (Malva sylvestris), Russian thistle (Salsola kali), and sugarcane (Saccharum officinarum) were planted and treated preemergence with test chemicals formulated in a non-phytotoxic solvent mixture which included a surfactant. At a different time, sugarcane was treated with postemergence applications of some of the test chemicals formulated in the same manner. Plants were approximately 3- to 4-leaf stage for the postemergence treatments. Treated plants and controls were maintained in a greenhouse for 14 to 21 days, after which time all species were compared to controls and visually evaluated. […] A dash (-) response means no test result.

[3] = tested on: Canada horseweed; experiment: Test F preemergence test; format: in vivo, Conyza canadensis; details: scale 0 to 100
In short: as §1

[4] = tested on: common chickweed; experiment: Test F preemergence test; format: in vivo, Stellaria media; details: scale 0 to 100
Excerpt: as §2

[5] = tested on: common sowthistle; experiment: Test F preemergence test; format: in vivo, Sonchus oleraceous; details: scale 0 to 100
In short: as §1

[6] = tested on: windgrass; experiment: Test C pre-/postemergence test; format: in vivo, Apera spica-venti; details: Postemergence; for Plant response rating, Windgrass: scale 0 to 100, 0 no effect, 100 complete control
Excerpt: Seeds of plant species selected from blackgrass (Alopecurus myosuroides), downy brome (Bromus tectorum), green foxtail (Setaria viridis), Italian ryegrass (Lolium multiflorum), wheat (Triticum aestivum), wild oat (Avena fatua), catchweed bedstraw (Galium aparine), Russian thistle (Salsola kali), […] (Cynodon dactylon), Surinam grass (Brachiaria decumbens), cocklebur (Xanthium strumarium), corn (Zea mays), crabgrass (Digitaria sanguinalis), woolly cupgrass (Eriochloa villosa), giant foxtail (Setaria faberii), Goosegrass (Eleusin indica), johnsongrass (Sorghum halepense), kochia (Kochia scoparia), lambsquarters (Chenopodium album), morningglory (Ipomoea coccinea), eastern black nightshade (Solanum ptycanthum), yellow nutsedge (Cyperus esculentus), pigweed (Amaranthus retroflexus), common ragweed (Ambrosia elation), soybean (Glycine max), common (oilseed) sunflower (Helianthus annuus), and velvetleaf (Abutilon theophrasti) were planted and treated preemergence with test chemicals formulated in a non-phytotoxic solvent mixture which included a surfactant. At the same time, plants selected from these crop and weed species and also winter barley (Hordeum vulgare), canarygrass (Phalaris minor), and chickweed (Stellaria media) were treated with postemergence applications of some of the test chemicals formulated in the same manner. Plants ranged in height from 2 to 18 cm (1- to 4-leaf stage) for postemergence treatments. […] At time of treatment, test pots were flooded to 3 cm above the soil surface, treated by application of test compounds directly to the paddy water, and then maintained at that water depth for the duration of the test. […] A dash (-) response means no test result.

[7] = tested on: winter barley; experiment: Test C postemergence test; format: in vivo, Hordeum vulgare; details: for Plant response rating (0 to 100), Barley: 31 g ai/ha; for Plant response rating, Barley: scale 0 to 100, 0 no effect, 100 complete control
Procedure: (§3) At the same time, plants selected from these crop and weed species and also winter barley (Hordeum vulgare), canarygrass (Phalaris minor), and chickweed (Stellaria media) were treated with postemergence applications of some of the test chemicals formulated in the same manner. Plants ranged in height from 2 to 18 cm (1- to 4-leaf stage) for postemergence treatments. […] At time of treatment, test pots were flooded to 3 cm above the soil surface, treated by application of test compounds directly to the paddy water, and then maintained at that water depth for the duration of the test. Treated plants and controls were maintained in a greenhouse for 13 to 15 days, after which time all species were compared to controls and visually evaluated. […] A dash (-) response means no test result.

[8] = tested on: chickweed; experiment: Test C postemergence test; format: in vivo, Stellaria media; details: for Plant response rating (0 to 100), Chickweed: 31 g ai/ha; for Plant response rating, Chickweed: scale 0 to 100, 0 no effect, 100 complete control
Procedure: as §3

[9] = tested on: canarygrass; experiment: Test C postemergence test; format: in vivo, Phalaris minor; details: for Plant response rating (0 to 100), Canarygrass: 31 g ai/ha; for Plant response rating, Canarygrass: scale 0 to 100, 0 no effect, 100 complete control
Procedure: as §3

[10] = tested on: spanishneedles; experiment: Test F preemergence test; format: in vivo, Bidens bipinnata; details: scale 0 to 100; for Plant response rating, Spanishneedles: Preemergence
Excerpt: as §2

Compound | Plant response rating, Guineagrass ([1]; 8 g ai/ha, preemergence) | Guineagrass plant response rating ([1]; 62 g ai/ha, Preemergence) | Plant response rating, Guineagrass ([1]; Preemergence, 16 g ai/ha) | Plant response rating, Guineagrass ([1]; Preemergence, 31 g ai/ha) | Plant response rating, Russian Thistle ([2]; Preemergence, 16 g ai/ha) | Horseweed plant response rating ([3]; 62 g ai/ha, Preemergence) | Plant response rating, Horseweed ([3]; Preemergence, 16 g ai/ha) | Plant response rating, Horseweed ([3]; Preemergence, 31 g ai/ha) | Plant response rating, Chickweed ([4]; 8 g ai/ha, preemergence) | Chickweed plant response rating ([4]; 62 g ai/ha, Preemergence) | Plant response rating, Chickweed ([4]; Preemergence, 16 g ai/ha) | Plant response rating, Chickweed ([4]; Preemergence, 31 g ai/ha) | Plant response rating, Sowthistle ([5]; 8 g ai/ha, preemergence) | Plant response rating, Sowthistle ([5]; 16 g ai/ha, preemergence) | Sowthistle plant response rating ([5]; 62 g ai/ha, Preemergence) | Plant response rating, Sowthistle ([5]; Preemergence, 31 g ai/ha) | Guineagrass plant response rating ([1]; 125 g ai/ha, preemergence) | Russian Thistle plant response rating ([2]; 62 g ai/ha, Preemergence) | Russian Thistle plant response rating ([2]; 125 g ai/ha, preemergence) | Plant response rating, Russian Thistle ([2]; Preemergence, 31 g ai/ha) | also measured
Cc1cc[n+]([O-])c([S+]([O-])Cc2c(C(F)(F)F)nn(C)c2Cl)c1 (racemic) [Compound 20] | 0 | 95 | 0 | 90 | 0 | 0 | 0 | 0 | 0 | 95 | 80 | 90 | 0 | 65 | 50 | 0 |  |  |  |  | Plant response rating, Horseweed ([3]; 8 g ai/ha, preemergence): 0
Cc1cc[n+]([O-])c(S(=O)(=O)C(C)c2c(C(F)(F)F)nn(C)c2OC(F)F)c1 (stereo not drawn) [Compound 11] |  | 100 | 70 | 90 |  |  |  |  |  | 100 | 70 | 80 |  |  | 100 | 90 | 100 | 100 | 100 | 100 | Horseweed plant response rating ([3]; 125 g ai/ha, preemergence): 100; Chickweed plant response rating ([4]; 125 g ai/ha, preemergence): 100; Sowthistle plant response rating ([5]; 125 g ai/ha, preemergence): 100
Cn1nc(C(F)(F)F)c(C[S+]([O-])c2ccc(Cl)c[n+]2[O-])c1OC(F)F (stereo not drawn) [Compound 6] | 100 | 100 | 100 | 100 | 0 |  |  |  | 80 | 100 | 100 | 100 | 0 | 0 | 90 | 50 |  |  |  | 0 | Plant response rating (0 to 100), Windgrass ([6]; 31 g ai/ha): 50; Plant response rating (0 to 100), Windgrass ([6]; 62 g ai/ha): 98; Plant response rating, Windgrass ([6]; 125 g ai/ha): 100; Plant response rating, Windgrass ([6]; 250 g ai/ha): 100; Plant response rating (0 to 100), Barley [7]: 0; Plant response rating, Barley ([7]; 62 g ai/ha): 0; Plant response rating, Barley ([7]; 125 g ai/ha): 0; Plant response rating, Barley ([7]; 250 g ai/ha): 0; Plant response rating, Russian Thistle ([2]; 8 g ai/ha, preemergence): 0; Plant response rating (0 to 100), Chickweed [8]: 0; Plant response rating, Chickweed ([8]; 62 g ai/ha): 40; Plant response rating, Chickweed ([8]; 125 g ai/ha): 85; Plant response rating, Chickweed ([8]; 250 g ai/ha): 95; Plant response rating (0 to 100), Canarygrass [9]: 0; Plant response rating, Canarygrass ([9]; 62 g ai/ha): 0; Plant response rating, Canarygrass ([9]; 125 g ai/ha): 0; Plant response rating, Canarygrass ([9]; 250 g ai/ha): 10
CC(c1c(C(F)(F)F)nn(C)c1OC(F)F)S(=O)(=O)c1cccc[n+]1[O-] (stereo not drawn) [Compound 5] | 20 | 100 | 100 | 100 | 0 |  |  |  | 100 | 100 | 100 | 100 | 100 | 100 | 100 | 100 |  | 60 |  | 0 | Plant response rating (0 to 100), Windgrass ([6]; 31 g ai/ha): 30; Plant response rating (0 to 100), Windgrass ([6]; 62 g ai/ha): 60; Plant response rating, Windgrass ([6]; 125 g ai/ha): 70; Plant response rating, Windgrass ([6]; 250 g ai/ha): 75; Plant response rating (0 to 100), Barley [7]: 0; Plant response rating, Barley ([7]; 62 g ai/ha): 0; Plant response rating, Barley ([7]; 125 g ai/ha): 20; Plant response rating, Barley ([7]; 250 g ai/ha): 20; Plant response rating, Russian Thistle ([2]; 8 g ai/ha, preemergence): 0; Plant response rating (0 to 100), Chickweed [8]: 0; Plant response rating, Chickweed ([8]; 62 g ai/ha): 0; Plant response rating, Chickweed ([8]; 125 g ai/ha): 10; Plant response rating, Chickweed ([8]; 250 g ai/ha): 85; Plant response rating (0 to 100), Canarygrass [9]: 0; Plant response rating, Canarygrass ([9]; 62 g ai/ha): 0; Plant response rating, Canarygrass ([9]; 125 g ai/ha): 0; Plant response rating, Canarygrass ([9]; 250 g ai/ha): 0
Cc1cc[n+]([O-])c([S+]([O-])Cc2c(C(F)(F)F)nn(C)c2OCC(F)(F)F)c1 (racemic) [Compound 30] |  | 100 | 35 | 100 | 100 | 100 | 100 | 100 |  | 100 | 75 | 100 |  |  | 100 | 100 | 100 | 100 | 100 | 100 | Horseweed plant response rating ([3]; 125 g ai/ha, preemergence): 100; Chickweed plant response rating ([4]; 125 g ai/ha, preemergence): 100; Sowthistle plant response rating ([5]; 125 g ai/ha, preemergence): 100
CC(c1c(C(F)(F)F)nn(C)c1OCC(F)(F)F)S(=O)(=O)c1cccc[n+]1[O-] (racemic) [Compound 33] |  | 100 |  | 100 |  |  |  |  |  |  |  |  |  |  |  |  | 100 |  |  |  | Plant response rating, Guineagrass ([1]; 16 g ai/ha, preemergence): 70; Spanishneedles plant response rating ([10]; 125 g ai/ha, preemergence): 65; Plant response rating, Spanishneedles ([10]; 62 g ai/ha): 35; Plant response rating, Spanishneedles ([10]; 31 g ai/ha): 35; Plant response rating, Russian Thistle ([2]; 16 g ai/ha, preemergence): 0
Cn1nc(C(F)(F)F)c(C[S+]([O-])c2cccc[n+]2[O-])c1Cl (stereo not drawn) [Compound 8] |  | 98 | 35 | 60 |  | 100 | 0 | 0 |  | 95 | 0 | 60 |  |  | 90 | 65 | 100 |  | 100 |  | Horseweed plant response rating ([3]; 125 g ai/ha, preemergence): 100; Chickweed plant response rating ([4]; 125 g ai/ha, preemergence): 98; Sowthistle plant response rating ([5]; 125 g ai/ha, preemergence): 100
